Series [1] is described as follows: Repeated oral toxicity testing in monkeys. It is filed as in vivo. The note with it: for safe dosage: under these test conditions. How it is done: Compound A was given orally to monkeys every day for 28 days at dosages of 1, 3, 10 and 30 mg/kg/day, and its toxicity was studied.
As a result, at dosages of 3 mg/kg/day or more, a decrease in serum cortisol, hyperplasia and increase in lipid droplets in the zona fasciculata in the adrenal cortex, and atrophy of the seminiferous tubules of the testes were observed; at the dosage of 30 mg/kg/day, prolongation of the QTc interval in the electrocardiogram (QT period corrected for heart rate) was also observed. Under these test conditions, it was considered that 1 mg/kg/day was a safe dosage.
Compound (+)-I was given orally to monkeys every day for 28 days at dosages of 1, 3, 10 and 30 mg/kg/day, and its toxicity studied.
Under these test conditions, it was considered that 30 mg/kg/day was safe dosage.

The nature of series [2]: Variation in the plasma concentrations in monkeys of the toxicity study. The note with it: repeated daily oral dosing for 28 days. It is filed as in vivo.
In series [3] the test system is Aspergillus fumigatus IFM 4942. Nature of the series: Effectiveness in treatment of in vivo infections (survival of infected mice). The note with it: IFM4942; Aspergillus fumigatus IFM 4942 i.v. infection, male ICR mice; dosed orally 5x (once daily for 5 days); survival after 2 weeks. On the procedure:
(§1) Measurement of Effectiveness in Treatment of In vivo Infections Using 10 animals per group, male ICR mice (body weight 18 to 20 g) were infected by intravenous injection of the test fungi as an aqueous suspension. The test compounds were given orally once 1 hour after infection, or once daily for 5 days starting from 1 hour after infection. After 2 weeks, the number of animals surviving was counted, and the dosage at which 50% of the animals survive (ED₅₀: mg/kg) was calculated using the Litchfield-Wilcoxon method.

Series [4] concerns Candida albicans IFM 40009. Described as above. The settings on record: IFM40009, Candida albicans IFM 40009 i.v. infection, male ICR mice, survival after 2 weeks. On the procedure:
as §1

Series [5] deals with Cryptococcus neoformans TIMM 0362. The series is described as above. The settings on record: TIMM0362; Cryptococcus neoformans TIMM 0362 i.v. infection, male ICR mice; dosed orally 1x (1 hour after infection); survival after 2 weeks. How it is done:
as §1

Series [6] concerns Aspergillus fumigatus IFM 4942. The experiment in a line: Measurement of Minimum Inhibitory Concentration (MIC), agar dilution. It is filed as cell-based. The settings on record: SDA agar plates, 30°C. On the procedure:
(§2) Measurement of Minimum Inhibitory Concentration (MIC)
(§3) Yeast-type fungi were cultured in Sabouraud dextrose broth (SDB, Difco) at 30°C for 24 hours, and 10⁵ cell/ml suspension for inoculation were prepared by diluting this with sterile physiological saline. In the case of filamentous fungi, 3 to 5 ml sterile physiological saline containing 0.05% (w/v) Tween 80 were added to mature Sabouraud dextrose agar culture medium (SDA, Difco) slant cultures (cultured for 2 to 3 weeks) in which conidia had formed abundantly, and the conidia were separated using an inoculating loop (Nunc Inc.). The conidial suspensions obtained were collected using a sterile pipette, and, after filtration through a double layer of sterile gauze to remove mycelial aggregates and agar fragments, were made into suspensions for inoculation by dilution of 10⁵ conidia/ml with sterile physiological saline. Meanwhile, as regards the drug-containing agar plates, a drug concentration of 0.005 to 10 mg/ml was prepared using dimethyl sulfoxide (DMSO, Wako Junyaku), and, by adding 99 parts of SDA to 1 part of this drug solution, two-fold serial dilution agar media of final dilutions 0.05 to 100 µg/ml were prepared. The fungal suspensions for inoculation prepared by the above method were inoculated onto these agar plates using a MIT-P microplanter (Sakuma Seisakusho).
Background: In agar dilution the substance is mixed into plates at graded concentrations.

In series [7] the test system is Trichophyton mentagrophytes TIMM 1188. Described as above. It is filed as cell-based. The note with it: SDA agar plates, 30°C. How it is done: as §2, §3
The test system of series [8] is Candida albicans IFM 40009. Described as above. It is filed as cell-based. The settings on record: 30°C, 48 hours. On the procedure:
as §2, §3

In series [9] the test system is Candida glabrata TIMM 1064. Described as above. It is filed as cell-based. The settings on record: SDA agar plates, 30°C. How it is done: as §2, §3
For series [10], the system named is Cryptococcus neoformans TIMM 0362. The description is as above. The note with it: SDA agar plates, 30°C. It is filed as cell-based. How it is done:
as §2, §3

Series [11] deals with Candida tropicalis TIMM 0313. The series is described as above. It is filed as cell-based. The note with it: SDA agar plates, 30°C. On the procedure: as §2, §3
Where [12] appears, read: every day for 28 days, 1, 3, 10 and 30 mg/kg/day.
Where [13] appears, read: dosed orally 5x (once daily for 5 days).
Where [14] appears, read: Aspergillus fumigatus, IFM4942, 48 h, read-out: MIC.
The mark [15] stands for this setting: Trichophyton mentagrophytes, TIMM1188, 48 h, read-out: MIC.
Where [16] appears, read: IFM40009, SDA agar plates, read-out: MIC.
Setting [17] is: Nakaseomyces glabratus, TIMM1064, 48 h, read-out: MIC.
Where [18] appears, read: Cryptococcus neoformans, TIMM0362, 48 h, read-out: MIC.
Setting [19] is: Candida tropicalis, TIMM0313, 48 h, read-out: MIC.
The mark [20] stands for this setting: every day for 28 days, up to 30 mg/kg/day.
The mark [21] stands for this setting: dosed orally 1x (1 hour after infection).

In brackets after ≈: the same amount, converted by molar mass. Entries after “also recorded” stand apart in the source; their conditions may differ. Like-named read-outs stand apart in the source and are kept apart here.

Regarding `OC(Cn1cncn1)(Cn1cnc(/C=C/c2ccc(OCC(F)(F)C(F)F)cc2)n1)c1ccc(F)cc1F` (racemic) [compound A, (±)-2-(2,4-difluorophenyl)-1-[3-[(E)-4-(2,2,3,3-tetrafluoropropoxy)styryl]-1H-1,2,4-triazol-1-yl]-3-(1H-1,2,4-triazol-1-yl)propan-2-ol], the “dosage at which a decrease in serum cortisol was observed” value in series [1] (setting [12]) is listed as no less than 3 mg/kg/day. Moreover, the “dosage at which atrophy of the seminiferous tubules of the testes was observed” value in [1] (setting [12]) is reported as no less than 3 mg/kg/day. Further, the “dosage at which hyperplasia and increase in lipid droplets in the zona fasciculata in the adrenal cortex was observed” value in [1] (every day for 28 days, 1, 3, 10 and 30 mg/kg/day, only slight for compound (+)-I) is reported as no less than 3 mg/kg/day. This compound displayed a safe dosage in [1] (every day for 28 days) of 1 mg/kg/day. Moreover, the “variation in the plasma concentrations with time (accumulation)” value in series [2] is reported as “accumulates; also recorded: increased day-by day”. Besides, the ED50 in [3] was 53.6 mg/kg; in series [4] (setting [13]) it was 1.7 mg/kg; in series [5] it was 43.5 mg/kg. Also, the MIC is 12.5 µg/mL (≈ 23.2 µM) in series [6] (setting [14]); 0.39 µg/mL (≈ 0.724 µM) in [7] (setting [15]); 12.5 µg/mL (≈ 23.2 µM) in series [8] (setting [16]); 1.56 µg/mL (≈ 2.9 µM) in series [9] (setting [17]); 0.78 µg/mL (≈ 1.45 µM) in series [10] (setting [18]); 12.5 µg/mL (≈ 23.2 µM) in [11] (setting [19]).
Regarding `OC(Cn1cncn1)(Cn1cnc(/C=C/c2ccc(OCC(F)(F)C(F)F)cc2)n1)c1ccc(F)cc1F` (single isomer, unassigned; (+)) [Compound (+)-I, (+)-2-(2,4-difluorophenyl)-1-[3-[(E)-4-(2,2,3,3-tetrafluoropropoxy)styryl]-1H-1,2,4-triazol-1-yl]-3-(1H-1,2,4-triazol-1-yl)propan-2-ol], the “testicular toxicity (atrophy of the seminiferous tubules), finding in words” value in series [1] (even at a dosage of 30 mg/kg/day) is “did not display”. Moreover, in series [1] (every day for 28 days), the safe dosage was 30 mg/kg/day. The “electrocardiogram / cardiotoxicity (prolongation of the QTc interval), finding in words” value in series [1] (setting [20]) is recorded as “no abnormalities in the electrocardiogram were seen; also recorded: did not display cardiotoxicity (prolongation of the QTc interval)”. In addition, the “serum cortisol level (finding in words)” value in series [1] (setting [20]) is “no decrease in the serum cortisol level; also recorded: did not display”. Also, the “variation in the plasma concentrations with time (accumulation)” value in series [2] is recorded as “no day-by day increase in the plasma concentrations; also recorded: does not display accumulation”. In addition, the ED50 in series [3] came out at 39.8 mg/kg; in [4] (setting [21]), 2.6 mg/kg; in [4] (setting [13]) it was 1 mg/kg; in [5], 19.7 mg/kg. The MIC in series [6] (48 hours, listed as COMP. (+)I) is 6.25 µg/mL (≈ 11.6 µM); in series [7] (48 hours, listed as COMP. (+)I), 0.10 µg/mL (≈ 0.186 µM); in series [8] (setting [16]), 12.5 µg/mL (≈ 23.2 µM); in series [9] (48 hours, listed as COMP. (+)I), 0.78 µg/mL (≈ 1.45 µM); in [10] (48 hours, listed as COMP. (+)I), 0.39 µg/mL (≈ 0.724 µM); in series [11] (48 hours, listed as COMP. (+)I), 12.5 µg/mL (≈ 23.2 µM).
Consider `OC(Cn1cncn1)(Cn1cnc(/C=C/c2ccc(OCC(F)(F)C(F)F)cc2)n1)c1ccc(F)cc1F` (single isomer, unassigned; (-)) [Compound (-)-I, (-)-2-(2,4-difluorophenyl)-1-[3-[(E)-4-(2,2,3,3-tetrafluoropropoxy)styryl]-1H-1,2,4-triazol-1-yl]-3-(1H-1,2,4-triazol-1-yl)propan-2-ol], for which the MIC was greater than 100 µg/mL in series [6] (48 hours, listed as COMP. (-)I); 50 µg/mL (≈ 92.9 µM) in [7] (48 hours, listed as COMP. (-)I); 12.5 µg/mL (≈ 23.2 µM) in series [8] (SDA agar plates); greater than 100 µg/mL in series [9] (48 hours, listed as COMP. (-)I); greater than 100 µg/mL in series [10] (48 hours, listed as COMP. (-)I); greater than 100 µg/mL in [11] (48 hours, listed as COMP. (-)I).
Turning to `OC(Cn1cncn1)(Cn1cncn1)c1ccc(F)cc1F` [FLUCONAZOLE, 2-(2,4-difluorophenyl)-1,3-bis(1H-1,2,4-triazol-1-yl)-propan-2-ol], the ED50 in series [3] was 57.9 mg/kg; in [4] (setting [21]), greater than 30 mg/kg; in [4] (setting [13]) it was 3.6 mg/kg; in [5] it was greater than 100 mg/kg. For the same compound, the MIC in series [6] (setting [14]) was greater than 100 µg/mL; in series [7] (setting [15]) it was 25 µg/mL (≈ 81.6 µM); in [8] (setting [16]), greater than 100 µg/mL; in series [9] (setting [17]), 100 µg/mL (≈ 327 µM); in series [10] (setting [18]), 50 µg/mL (≈ 163 µM); in series [11] (setting [19]), greater than 100 µg/mL.

The term ED50 denotes the dose at which the effect has come halfway, by size or by number of responders. Lower therefore signals greater potency. One may read the MIC as the smallest concentration in the dilution series that meets the test's criterion for growth inhibition.
